According to patent US10233178B2, “Arylcyclopropylamine based demethylase inhibitors of LSD1 and their medical use” (priority 2010, dated 2019):

How the values were obtained:
MAO-A = MAO-A (Homo sapiens (Human), UniProt P21397); assay: biochemical
MAO-B = MAO-B (Homo sapiens (Human), UniProt P27338); assay: biochemical
MAO-B, sequence (P27338 whole entry): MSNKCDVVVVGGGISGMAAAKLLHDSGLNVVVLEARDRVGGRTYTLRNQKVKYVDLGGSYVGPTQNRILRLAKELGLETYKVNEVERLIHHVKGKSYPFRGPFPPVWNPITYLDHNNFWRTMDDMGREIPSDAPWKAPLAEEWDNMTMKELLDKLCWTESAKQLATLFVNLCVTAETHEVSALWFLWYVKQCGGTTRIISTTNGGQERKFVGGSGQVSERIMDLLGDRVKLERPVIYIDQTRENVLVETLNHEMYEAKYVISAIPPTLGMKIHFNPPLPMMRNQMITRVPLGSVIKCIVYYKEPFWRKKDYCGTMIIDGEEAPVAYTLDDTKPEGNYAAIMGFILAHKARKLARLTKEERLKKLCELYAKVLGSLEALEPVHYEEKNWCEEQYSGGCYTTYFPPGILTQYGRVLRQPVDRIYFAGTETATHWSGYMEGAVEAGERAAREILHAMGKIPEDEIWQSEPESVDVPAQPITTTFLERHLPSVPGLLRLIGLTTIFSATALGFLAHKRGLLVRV
Method: For MAO-B, the protein was kept between 1.8 and 3.6 ng/ul (Sigma M7441) and kynuramine (Sigma) at 50 uM was used as substrate.

MAO-A, sequence (P21397 whole entry): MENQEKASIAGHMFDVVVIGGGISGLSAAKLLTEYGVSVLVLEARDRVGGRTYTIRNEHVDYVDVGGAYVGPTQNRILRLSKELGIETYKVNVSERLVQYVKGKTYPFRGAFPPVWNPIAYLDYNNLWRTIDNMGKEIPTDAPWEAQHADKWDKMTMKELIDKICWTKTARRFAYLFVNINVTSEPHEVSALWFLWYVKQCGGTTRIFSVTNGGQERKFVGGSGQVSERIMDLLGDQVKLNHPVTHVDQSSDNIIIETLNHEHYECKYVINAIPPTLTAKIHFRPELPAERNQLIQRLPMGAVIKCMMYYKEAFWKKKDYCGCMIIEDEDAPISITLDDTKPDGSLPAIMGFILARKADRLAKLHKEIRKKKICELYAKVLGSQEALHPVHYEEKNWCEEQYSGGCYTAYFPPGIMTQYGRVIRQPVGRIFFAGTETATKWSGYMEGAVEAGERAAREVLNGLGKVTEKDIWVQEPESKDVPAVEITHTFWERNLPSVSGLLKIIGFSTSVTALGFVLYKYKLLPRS

Q: For `C#CCN[C@@H]1CCc2ccccc21` [Rasagiline], which kinact/KI (MAO-A) is on record?
A: 62 M⁻¹ s⁻¹

Q: What about the kinact/KI (MAO-B) of the same molecule?
A: 7460 M⁻¹ s⁻¹
